Test systems include A498 renal; A549 NSCLC; DU-145 prostate; HS 578T breast; IGROV1 ovarian; MALME-3M melanoma; NCI-H460 lung; NCI/ADR-RES ovarian; OVCAR-4 ovarian; OVCAR-5 ovarian; SF-268 CNS; SF-295 CNS; SK-MEL-28 melanoma; SK-MEL-5 melanoma; SNB-19 CNS.
Assay in all cases: DTP human tumour cell line panel, 48 h

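Tested at 5 concentrations; 48 h exposure; 96-well plates; endpoints linearly interpolated, else capped at highest concentration. TGI is the concentration that stops growth completely.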

The TGI is the concentration at which net growth stops. Consider `COC(=O)C1C(=O)C=CN([C@H](C)c2ccccc2)[C@@H]1Cc1ccc(OC)c(OCc2ccccc2)c1I` (stereo not given in full), for which the TGI is 34.8 µM in the assay with A498 renal; 71.9 µM in the assay with A549 NSCLC; 42.6 µM in the assay with DU-145 prostate; more than 100 µM in the assay on HS 578T breast; 29.5 µM in the assay on IGROV1 ovarian; 39.6 µM in the assay with MALME-3M melanoma. The TGI with NCI-H460 lung is 31.7 µM; with NCI/ADR-RES ovarian, 42.9 µM; in the assay on OVCAR-4 ovarian, 79.9 µM; with OVCAR-5 ovarian, 92.7 µM; in the assay with SF-268 CNS, 41.1 µM; in the assay on SF-295 CNS, 35.5 µM. Also, the TGI in the assay on SK-MEL-28 melanoma is more than 100 µM; in the assay on SK-MEL-5 melanoma it was 27.4 µM; in the assay with SNB-19 CNS it was 86.4 µM.
Take `COc1ccccc1N1CCN(CCCN2/C(=C(\O)c3ccccc3)C(=O)c3c(C)cc(C)nc3S2(=O)=O)CC1`: the total growth inhibition concentration (TGI) in the assay on A498 renal, in the assay on A549 NSCLC, in the assay with DU-145 prostate, with HS 578T breast, in the assay with IGROV1 ovarian and with MALME-3M melanoma was more than 100 µM in each case. For the same molecule, the TGI in the assay on NCI-H460 lung, with NCI/ADR-RES ovarian, with OVCAR-4 ovarian, in the assay with OVCAR-5 ovarian, in the assay with SF-268 CNS and in the assay with SF-295 CNS was more than 100 µM each time. For the same molecule, the TGI in the assay on SK-MEL-28 melanoma, in the assay with SK-MEL-5 melanoma and with SNB-19 CNS was more than 100 µM in each case.
Turning to `CN(/N=C/c1ccc(OCc2cccc(COc3ccc(C=O)cc3)n2)cc1)c1cnn(-c2ccc(Cl)cc2Cl)c(=O)c1Cl`, the TGI in the assay on A498 renal, in the assay on A549 NSCLC, in the assay on DU-145 prostate, with HS 578T breast, in the assay on IGROV1 ovarian and in the assay with MALME-3M melanoma was more than 100 µM throughout. The TGI with NCI-H460 lung, in the assay with NCI/ADR-RES ovarian, with OVCAR-4 ovarian, with OVCAR-5 ovarian, with SF-268 CNS and in the assay with SF-295 CNS was more than 100 µM in each case. In addition, the TGI in the assay with SK-MEL-28 melanoma, in the assay with SK-MEL-5 melanoma and in the assay with SNB-19 CNS was more than 100 µM in each case.
In the case of `CC(=NNC(=S)Nc1ccc(C)cc1)c1cccc(C(C)=NNC(=S)Nc2ccc(C)cc2)n1`, the TGI with A498 renal is 80.9 µM; with A549 NSCLC it was more than 100 µM; with DU-145 prostate, more than 100 µM; in the assay with HS 578T breast, more than 100 µM; with IGROV1 ovarian it was 75.4 µM; with MALME-3M melanoma, 46.9 µM. For the same molecule, the total growth inhibition concentration (TGI) is more than 100 µM in the assay on NCI-H460 lung; 58.8 µM with NCI/ADR-RES ovarian; 89.1 µM with OVCAR-4 ovarian; more than 100 µM in the assay with OVCAR-5 ovarian; more than 100 µM in the assay on SF-268 CNS; 71.7 µM in the assay on SF-295 CNS. The TGI was more than 100 µM with SK-MEL-28 melanoma, 38.7 µM in the assay on SK-MEL-5 melanoma and more than 100 µM with SNB-19 CNS.
With `COC(=O)C(COC(C)=O)NC(=O)/C=C/c1ccc(O)c(OC(C)=O)c1` (stereo not given), the TGI with A498 renal, with A549 NSCLC, with DU-145 prostate, in the assay with HS 578T breast, in the assay with IGROV1 ovarian and in the assay on MALME-3M melanoma was more than 100 µM each time. Also, the TGI in the assay on NCI-H460 lung, with NCI/ADR-RES ovarian, with OVCAR-4 ovarian, in the assay on OVCAR-5 ovarian, in the assay with SF-268 CNS and in the assay with SF-295 CNS was more than 100 µM each time. In addition, the concentration for total growth inhibition (TGI) in the assay on SK-MEL-28 melanoma, with SK-MEL-5 melanoma and with SNB-19 CNS was more than 100 µM throughout.
For `Clc1ccc(-c2c(C3=NCCCN3)nnn2-c2ccc(Cl)cc2)cc1`, the TGI was more than 96.8 µM in the assay on A498 renal; more than 100 µM in the assay with A549 NSCLC; more than 100 µM in the assay with DU-145 prostate; more than 59.5 µM with HS 578T breast; more than 100 µM in the assay with IGROV1 ovarian; 33 µM with MALME-3M melanoma. Moreover, the TGI is more than 75.4 µM in the assay with NCI-H460 lung; more than 86.4 µM in the assay on NCI/ADR-RES ovarian; more than 100 µM with OVCAR-4 ovarian; more than 89.8 µM in the assay on OVCAR-5 ovarian; more than 83.2 µM in the assay on SF-268 CNS; more than 77.2 µM in the assay on SF-295 CNS. The values for the concentration for total growth inhibition (TGI) in the assay with SK-MEL-28 melanoma, with SK-MEL-5 melanoma and with SNB-19 CNS were 31.6 µM, 35.9 µM and more than 85.3 µM, respectively.
In the case of `CN1C2CCC1CC(CCNC(c1ccccc1)c1ccccc1)C2` (stereo not given), the total growth inhibition concentration (TGI) with A498 renal was 60.5 µM; in the assay with A549 NSCLC, more than 100 µM; in the assay with DU-145 prostate it was more than 100 µM; with HS 578T breast, more than 100 µM; with IGROV1 ovarian, more than 100 µM; in the assay on MALME-3M melanoma, 31.4 µM. Besides, the TGI is more than 100 µM with NCI-H460 lung; more than 100 µM with NCI/ADR-RES ovarian; more than 100 µM in the assay with OVCAR-4 ovarian; more than 100 µM in the assay on OVCAR-5 ovarian; more than 100 µM with SF-268 CNS; 49 µM in the assay on SF-295 CNS. The values for the TGI in the assay on SK-MEL-28 melanoma, in the assay on SK-MEL-5 melanoma and in the assay on SNB-19 CNS were 34.2 µM, 25.5 µM and more than 100 µM, respectively.

The record behind these values is PubChem BioAssay (NCI).
